Test results from patent US9976141B2, “Compositions and methods for inhibiting gene expression of Hif2alpha” (Arrowhead Madison Inc., priority 2015, dated 2018).
Strand notation (5' to 3'): a small letter for the sugar, then the base; units joined by * are phosphorothioate-linked, units joined directly phosphodiester-linked; [ ] holds rarer units or linkages, { } end groups; capitals alone tell only the bases. d = 2'-deoxy (DNA); m = 2'-O-methyl; f = 2'-fluoro

System: human EPAS1 (Hif2α) cDNA in psiCHECK2 (Renilla luciferase/EPAS1 fusion mRNA) in Hep3B cells
Experiment: Efficacy screen of Hif2α RNAi triggers in vitro, dual-luciferase reporter assay (1 nM and 0.1 nM)
Format: cell-based
Conditions: Hep3B cells co-transfected with EPAS1-psiCHECK2, Renilla luciferase normalized to firefly luciferase
Description: Candidate sequences were identified by in silico analysis and screened as chemically modified canonical siRNAs in vitro. For screening purposes, the human EPAS1 (Hif2α) cDNA sequence (accession #NM 001430) was synthesized and cloned (DNA 2.0, Menlo Park, Calif.) into a commercially-available reporter-based screening plasmid, psiCHECK2 (Promega, Madison, Wis.) which generated a Renilla luciferase/EPAS1 fusion mRNA. For RNAi trigger efficacy evaluation, Hep3B cells, a human hepatocellular carcinoma line, were plated at 10,000 cells per well in 96-well format. Each of the 187 EPAS1 RNAi triggers, in two subsets, was co-transfected at two concentrations, 1 nM and 0.1 nM, with 25 ng EPAS1-psiCHECK2 plasmid DNA per well and 0.2 μL LipoFectamine 2000 (Life Technologies) per well. Gene knockdown was determined by measuring Renilla luciferase levels normalized to the levels of constitutively-expressed firefly luciferase, also present on the psiCHECK-2 plasmid, using the Dual Luciferase Reporter Assay (Promega, Madison, Wis.) Table 5.

For “2231 (sense fGmAfGmAfCmUfGmUfAmUfGmGfUmCfAmGfCmUfAdT; antisense dTfAmGfCmUfGmAfCmCfAmUfAmCfAmGfUmCfUmCdT*dT; siRNA) [compound 2231]”, the “Relative Rluc-Hif2α” value (0.1 nM RNAi trigger) was 0.544 ± 0.368 and the “Relative Rluc-Hif2α” value (1 nM RNAi trigger) was 0.491 ± 0.198.

With “2232 (sense fCmUfCmCfGmAfCmUfCmCfUmUfCmCfGmAfCmUfAdT; antisense dTfAmGfUmCfGmGfAmAfGmGfAmGfUmCfGmGfAmGdT*dT; siRNA) [compound 2232]” the “Relative Rluc-Hif2α” value (0.1 nM RNAi trigger) was 0.684 ± 0.061 and the “Relative Rluc-Hif2α” value (1 nM RNAi trigger) was 0.468 ± 0.032.

With “2233 (sense fUmCfCmGfAmCfUmCfCmCfAmGfCmAfUmUfCmGfAdT; antisense dTfCmGfAmAfUmGfCmUfGmGfGmAfGmUfCmGfGmAdT*dT; siRNA) [compound 2233]” the “Relative Rluc-Hif2α” value (0.1 nM RNAi trigger) was 0.913 ± 0.019 and the “Relative Rluc-Hif2α” value (1 nM RNAi trigger) was 0.862 ± 0.125.

In the case of “2234 (sense fCmGfAmCfUmCfCmCfAmGfCmAfUmUfCmGfAmGfAdT; antisense dTfCmUfCmGfAmAfUmGfCmUfGmGfGmAfGmUfCmGdT*dT; siRNA) [compound 2234]”, the “Relative Rluc-Hif2α” value (0.1 nM RNAi trigger) is reported as 0.508 ± 0.148 and the “Relative Rluc-Hif2α” value (1 nM RNAi trigger) is reported as 0.388 ± 0.046.

In the case of “2235 (sense fGmAfCmUfCmCfCmAfGmCfAmUfUmCfGmAfGmCfAdT; antisense dTfGmCfUmCfGmAfAmUfGmCfUmGfGmGfAmGfUmCdT*dT; siRNA) [compound 2235]”, the “Relative Rluc-Hif2α” value (0.1 nM RNAi trigger) is reported as 0.743 ± 0.129 and the “Relative Rluc-Hif2α” value (1 nM RNAi trigger) is reported as 0.857 ± 0.090.

With “2236 (sense fCmAfGmGfUmGfCmUfCmGfGmCfGmUfCmUfGmAfAdT; antisense dTfUmCfAmGfAmCfGmCfCmGfAmGfCmAfCmCfUmGdT*dT; siRNA) [compound 2236]” the “Relative Rluc-Hif2α” value (0.1 nM RNAi trigger) was 0.693 ± 0.071 and the “Relative Rluc-Hif2α” value (1 nM RNAi trigger) was 0.761 ± 0.042.

In the case of “2237 (sense fGmUfGmCfUmCfGmGfCmGfUmCfUmGfAmAfCmGfAdT; antisense dTfCmGfUmUfCmAfGmAfCmGfCmCfGmAfGmCfAmCdT*dT; siRNA) [compound 2237]”, the “Relative Rluc-Hif2α” value (0.1 nM RNAi trigger) is reported as 0.746 ± 0.029 and the “Relative Rluc-Hif2α” value (1 nM RNAi trigger) is reported as 0.978 ± 0.083.

“2238 (sense fUmCfGmGfCmGfUmCfUmGfAmAfCmGfUmCfUmCfAdT; antisense dTfGmAfGmAfCmGfUmUfCmAfGmAfCmGfCmCfGmAdT*dT; siRNA) [compound 2238]” was tested, and the “Relative Rluc-Hif2α” value (0.1 nM RNAi trigger) was 0.208 ± 0.023 and the “Relative Rluc-Hif2α” value (1 nM RNAi trigger) was 0.148 ± 0.024.

For “2239 (sense fGmGfCmGfUmCfUmGfAmAfCmGfUmCfUmCfAmAfAdT; antisense dTfUmUfGmAfGmAfCmGfUmUfCmAfGmAfCmGfCmCdT*dT; siRNA) [compound 2239]”, the “Relative Rluc-Hif2α” value (0.1 nM RNAi trigger) was 0.225 ± 0.022 and the “Relative Rluc-Hif2α” value (1 nM RNAi trigger) was 0.157 ± 0.017.

For “2240 (sense fCmGfUmCfUmGfAmAfCmGfUmCfUmCfAmAfAmGfAdT; antisense dTfCmUfUmUfGmAfGmAfCmGfUmUfCmAfGmAfCmGdT*dT; siRNA) [compound 2240]”, the “Relative Rluc-Hif2α” value (0.1 nM RNAi trigger) was 0.841 ± 0.048 and the “Relative Rluc-Hif2α” value (1 nM RNAi trigger) was 0.845 ± 0.052.

“2241 (sense fAmAfAmAfGmGfAmGfUmAfGmCfUmCfGmGfAmGfAdT; antisense dTfCmUfCmCfGmAfGmCfUmAfCmUfCmCfUmUfUmUdT*dT; siRNA) [compound 2241]” was tested, and the “Relative Rluc-Hif2α” value (0.1 nM RNAi trigger) was 0.385 ± 0.028 and the “Relative Rluc-Hif2α” value (1 nM RNAi trigger) was 0.270 ± 0.068.

In the case of “2242 (sense fGmGfGmUfUmUfCmAfUmUfGmCfCmGfUmGfGmUfAdT; antisense dTfAmCfCmAfCmGfGmCfAmAfUmGfAmAfAmCfCmCdT*dT; siRNA) [compound 2242]”, the “Relative Rluc-Hif2α” value (0.1 nM RNAi trigger) is reported as 0.411 ± 0.019 and the “Relative Rluc-Hif2α” value (1 nM RNAi trigger) is reported as 0.222 ± 0.064.

For “2243 (sense fUmUfCmAfUmGfGmGfAmCfUmUfAmCfAmCfAmGfAdT; antisense dTfCmUfGmUfGmUfAmAfGmUfCmCfCmAfUmGfAmAdT*dT; siRNA) [compound 2243]”, the “Relative Rluc-Hif2α” value (0.1 nM RNAi trigger) was 0.688 ± 0.059 and the “Relative Rluc-Hif2α” value (1 nM RNAi trigger) was 0.694 ± 0.107.

For “2244 (sense fGmGfGmAfCmUfUmAfCmAfCmAfGmGfUmGfGmAfAdT; antisense dTfUmCfCmAfCmCfUmGfUmGfUmAfAmGfUmCfCmCdT*dT; siRNA) [compound 2244]”, the “Relative Rluc-Hif2α” value (0.1 nM RNAi trigger) was 0.760 ± 0.050 and the “Relative Rluc-Hif2α” value (1 nM RNAi trigger) was 0.915 ± 0.115.

With “2245 (sense fAmCfAmCfAmGfGmUfGmGfAmGfCmUfAmAfCmAfAdT; antisense dTfUmGfUmUfAmGfCmUfCmCfAmCfCmUfGmUfGmUdT*dT; siRNA) [compound 2245]” the “Relative Rluc-Hif2α” value (0.1 nM RNAi trigger) was 0.761 ± 0.039 and the “Relative Rluc-Hif2α” value (1 nM RNAi trigger) was 0.727 ± 0.066.

For “2246 (sense fGmAfGmCfUmAfAmCfAmGfGmAfCmAfUmAfGmUfAdT; antisense dTfAmCfUmAfUmGfUmCfCmUfGmUfUmAfGmCfUmCdT*dT; siRNA) [compound 2246]”, the “Relative Rluc-Hif2α” value (0.1 nM RNAi trigger) was 0.509 ± 0.044 and the “Relative Rluc-Hif2α” value (1 nM RNAi trigger) was 0.327 ± 0.042.

With “2247 (sense fGmCfUmAfAmCfAmGfGmAfCmAfUmAfGmUfAmUfAdT; antisense dTfAmUfAmCfUmAfUmGfUmCfCmUfGmUfUmAfGmCdT*dT; siRNA) [compound 2247]” the “Relative Rluc-Hif2α” value (0.1 nM RNAi trigger) was 0.439 ± 0.082 and the “Relative Rluc-Hif2α” value (1 nM RNAi trigger) was 0.231 ± 0.048.

With “2248 (sense fCmUfAmAfCmAfGmGfAmCfAmUfAmGfUmAfUmCfAdT; antisense dTfGmAfUmAfCmUfAmUfGmUfCmCfUmGfUmUfAmGdT*dT; siRNA) [compound 2248]” the “Relative Rluc-Hif2α” value (0.1 nM RNAi trigger) was 0.215 ± 0.007 and the “Relative Rluc-Hif2α” value (1 nM RNAi trigger) was 0.148 ± 0.036.

With “2249 (sense fGmGfAmCfAmUfAmGfUmAfUmCfUmUfUmGfAmCfAdT; antisense dTfGmUfCmAfAmAfGmAfUmAfCmUfAmUfGmUfCmCdT*dT; siRNA) [compound 2249]” the “Relative Rluc-Hif2α” value (0.1 nM RNAi trigger) was 0.303 ± 0.042 and the “Relative Rluc-Hif2α” value (1 nM RNAi trigger) was 0.190 ± 0.028.

With “2250 (sense fUmCfUmUfUmGfAmCfUmUfCmAfCmUfCmAfUmCfAdT; antisense dTfGmAfUmGfAmGfUmGfAmAfGmUfCmAfAmAfGmAdT*dT; siRNA) [compound 2250]” the “Relative Rluc-Hif2α” value (0.1 nM RNAi trigger) was 0.255 ± 0.020 and the “Relative Rluc-Hif2α” value (1 nM RNAi trigger) was 0.139 ± 0.046.

With “2251 (sense fUmCfAmCfUmCfAmUfCmCfCmUfGmCfGmAfCmCfAdT; antisense dTfGmGfUmCfGmCfAmGfGmGfAmUfGmAfGmUfGmAdT*dT; siRNA) [compound 2251]” the “Relative Rluc-Hif2α” value (0.1 nM RNAi trigger) was 0.857 ± 0.087 and the “Relative Rluc-Hif2α” value (1 nM RNAi trigger) was 0.872 ± 0.121.

For “2252 (sense fGmAfGmAfUmUfCmGfUmGfAmGfAmAfCmCfUmGfAdT; antisense dTfCmAfGmGfUmUfCmUfCmAfCmGfAmAfUmCfUmCdT*dT; siRNA) [compound 2252]”, the “Relative Rluc-Hif2α” value (0.1 nM RNAi trigger) was 0.696 ± 0.096 and the “Relative Rluc-Hif2α” value (1 nM RNAi trigger) was 0.592 ± 0.061.

In the case of “2253 (sense fUmUfCmGfUmGfAmGfAmAfCmCfUmGfAmGfUmCfAdT; antisense dTfGmAfCmUfCmAfGmGfUmUfCmUfCmAfCmGfAmAdT*dT; siRNA) [compound 2253]”, the “Relative Rluc-Hif2α” value (0.1 nM RNAi trigger) is reported as 0.646 ± 0.144 and the “Relative Rluc-Hif2α” value (1 nM RNAi trigger) is reported as 0.564 ± 0.043.

“2254 (sense fUmCfGmUfGmAfGmAfAmCfCmUfGmAfGmUfCmUfAdT; antisense dTfAmGfAmCfUmCfAmGfGmUfUmCfUmCfAmCfGmAdT*dT; siRNA) [compound 2254]” was tested, and the “Relative Rluc-Hif2α” value (0.1 nM RNAi trigger) was 0.756 ± 0.080 and the “Relative Rluc-Hif2α” value (1 nM RNAi trigger) was 0.641 ± 0.054.

In the case of “2255 (sense fGmAfCmAfUmGfUmCfCmAfCmAfGmAfGmCfGmGfAdT; antisense dTfCmCfGmCfUmCfUmGfUmGfGmAfCmAfUmGfUmCdT*dT; siRNA) [compound 2255]”, the “Relative Rluc-Hif2α” value (0.1 nM RNAi trigger) is reported as 0.653 ± 0.130 and the “Relative Rluc-Hif2α” value (1 nM RNAi trigger) is reported as 0.721 ± 0.055.

For “2256 (sense fGmCfGmGfGmAfCmUfUmCfUmUfCmAfUmGfAmGfAdT; antisense dTfCmUfCmAfUmGfAmAfGmAfAmGfUmCfCmCfGmCdT*dT; siRNA) [compound 2256]”, the “Relative Rluc-Hif2α” value (0.1 nM RNAi trigger) was 0.796 ± 0.028 and the “Relative Rluc-Hif2α” value (1 nM RNAi trigger) was 0.765 ± 0.124.
